Results reported in US4229461A, “Fungicidal 6-(3,5-dichlorophenyl)perhydroimidazo[5,1-b]thiazole derivatives” (Mitsubishi Chemical Industries Limited, priority 1978, dated 1980).
Values after ≈ are worked out from the molar mass of the structure shown.

How the values were obtained:
Botrytis cinerea = test: Preventive test against Cucumber Gray Mold disease; assay type: in vivo; conditions: 96 h, 4 days after inoculation, 23° C.
Experimental: Cucumber plants (cultivar: Satsukimidori), were each grown in a 15 cm.phi. plastic pot to the first leaf stage. The plants were sprayed with 10 ml/l pot of aqueous diluted suspensions of various types of wettable powders (including the wettable powder containing, as its active ingredient, compound No. 1 obtained in the Preparation Example 1, wettable powders, containing as active ingredients compounds Nos. 2-10 obtained in a manner similar to Preparation Example 1, and a wettable powder for a comparison chemical containing, as its active ingredient, tetrachloroisophthalonitrile obtained in manner similar to Preparation Example 1). After air-drying for 5 hours, the plants were inoculated with the mecelia of Botrytis cinerea inoculated with shaking in Yeast-Glucose liquid medium.
The cucumbers were kept in the humidic chamber at 23° C. for 4 days after inoculation and then checked with respect to their disease index. The checking was conducted as follows: The leaves were checked to determine the extent of lesion area and classified into six groups as indicated by indices 0, 1, 2, 3, 4, 5 based on the extent of the lesions and on the numbers of leaves n0, n1, n2, n3, n4, and n5 which corresponded to the indices, respectively, were also determined to calculate the disease index from the following equation.
1 lesion area of 1/5 times the total leaf area
2 lesion area of 2/5 times the total leaf area
3 lesion area of 3/5 times the total leaf area
4 lesion area of 4/5 times the total leaf area
5 lesion area above 4/5 times the total leaf area
(where n is the total number of checked leaves)
The preventive value was calculated from the following equation. [formula]

Cochliobolus miyabeans = test: Preventive test against Rice brown spot disease; assay type: in vivo, Cochliobolus miyabeans on rice plants (cultivar: Kinmaze); conditions: Oryza sativa, 48 h, read-out: Preventive Value
Experimental: Rice plants (cultivar: Kinmaze) were each grown in a 10 cm.phi. porcelain pot to the 3-4 leaves stage. The plants were sprayed with 10 ml/l pot of aqueous diluted suspensions of various types of wettable powders of the chemicals of the invention and comparison chemical [bis(dimethyl thiocarbamoyl)disulfide). The wettable powders were prepared in a manner similar to test example 1.
After air drying for 5 hours, the plants were inoculated with a spore suspension of Cochliobolus miyabeans incubated with a chaffy medium at 25° C. for 5 days.
These plants were kept in the humidic chamber at 27° C. for 48 hours after inoculation and the number of lesions were counted and preventive value was calculated according to the following equation. [formula]

Sclerotinia sclerotiorum [1] = test: Preventive test against kidney bean stem rot; assay type: in vivo; conditions: 4 days, 25° C.
Experimental: Kidney bean plants (cultivar: Kintoki) were each grown in a 15 cm.phi. plastic pot to the trifoliate stage. The plants were sprayed with 10 ml/l pot of an aqueous diluted suspension of wettable powders of the chemicals of the invention and comparison chemical.
The wettable powders were prepared in a manner similar to example 1. After air drying for 5 hours, the plants were inoculated with mecelia of Sclerotinia sclerotiorum incubated with shaking in a Yeast-Glucose liquid medium, and kept in a humidic chamber at 25° C. for 4 days. Then the preventive value was calculated according to the equation given in test example 1.

[2] = tested on: Botrytis cinerea (strain I); test: Antifungal Test (PDA medium), Botrytis cinerea (strain I); assay type: cell-based; conditions: 96 h, 25° C., 4 days, read-out: MIC Concentration
Experimental: (§1) Each chemical was mixed with PDA medium in an amount enough to obtain the pre-determined concentration level and solidified in 9 cm.phi. Petri dish. Then, various plant disease fungi were inoculated on the middle of the mixed agar plate and cultured at 25° C. for 4 days.
(§2) The minimum inhibition concentration (MIC) means that at which the development of the inoculated fungus was not recognized with the naked eye.

[3] = tested on: Botrytis cinerea (strain II); test: Antifungal Test (PDA medium), Botrytis cinerea (strain II); assay type: cell-based; conditions: 96 h, resistant to benzoimidazole type fungicide, 25° C., 4 days, read-out: MIC Concentration
Experimental: as §1, §2
*Botrytis cinerea (strain II) is the strain resistant to
benzoimidazoletype fungicide e.g. Benlate, TopsinM.

Sclerotinia sclerotiorum [4] = test: Antifungal Test (PDA medium), Sclerotinia sclerotiorum; assay type: cell-based; conditions: 96 h, 25° C., 4 days, read-out: MIC Concentration
Experimental: as §1, §2

Altrenaria mali = test: Antifungal Test (PDA medium), Altrenaria mali; assay type: cell-based; conditions: 96 h, 25° C., 4 days, read-out: MIC Concentration
Experimental: as §1, §2

Altrenaria Kikuchiana = test: Antifungal Test (PDA medium), Altrenaria Kikuchiana; assay type: cell-based; conditions: 96 h, 25° C., 4 days, read-out: MIC Concentration
Experimental: as §1, §2

Botrytis allii = test: Antifungal Test (PDA medium), Botrytis allii; assay type: cell-based; conditions: 96 h, 25° C., 4 days, read-out: MIC Concentration
Experimental: as §1, §2

For `O=C1C2SCCN2C(=O)N1c1cc(Cl)cc(Cl)c1` (stereo not drawn) [Compound No. 1, 6-(3,5-dichlorophenyl)perhydroimidazo[5,1-b]thiazole-5,7-dion], the pest or weed control at 62.5 ppm (Botrytis cinerea) was 100%, the pest or weed control at 125 ppm (Botrytis cinerea) was 100% and the pest or weed control at 250 ppm (Botrytis cinerea) was 100%. For the same compound, the pest or weed control at 500 ppm (Botrytis cinerea) was 100%, the pest or weed control at 500 ppm (Cochliobolus miyabeans) was 95.1% and the “Preventive Value” (Sclerotinia sclerotiorum [1]; 50 ppm) was 95.3%. The “Preventive Value” (Sclerotinia sclerotiorum [1]; 100 ppm) was 98.2%, the “Preventive Value” (Sclerotinia sclerotiorum [1]; 200 ppm) was 100% and the MIC [2] was 3.1 mg/L (≈ 10.2 µM). The MIC [3] was 3.1 mg/L (≈ 10.2 µM), the MIC (Sclerotinia sclerotiorum [4]) was 1.6 mg/L (≈ 5.28 µM) and the MIC (Altrenaria mali) was 3.1 mg/L (≈ 10.2 µM). It also gave an MIC (Altrenaria Kikuchiana) of 3.1 mg/L (≈ 10.2 µM) and an MIC (Botrytis allii) of 6.2 mg/L (≈ 20.5 µM).
For `O=C1C2N(CCS2(=O)=O)C(=O)N1c1cc(Cl)cc(Cl)c1` (stereo not drawn) [Compound No. 5, 6-(3,5-dichlorophenyl)perhydroimidazo[5,1-b]thiazole-5,7-dion-1,1-dioxide], the pest or weed control at 500 ppm (Botrytis cinerea) was 91% and the pest or weed control at 500 ppm (Cochliobolus miyabeans) was 89.6%.
For `CN(C)C(=S)SSC(=S)N(C)C` [Bis(dimethyl thiocarbamoyl)disulfide, reference compound], the pest or weed control at 500 ppm (Cochliobolus miyabeans) was 83.3%.
In the case of `CC12SCCN1C(=O)N(c1cc(Cl)cc(Cl)c1)C2=O` (stereo not drawn) [Compound No. 3, 7a-methyl-6-(3,5-dichlorophenyl)perhydroimidazo[5,1-b]thiazole-5,7-dion], the pest or weed control at 62.5 ppm (Botrytis cinerea) is reported as 100%, the pest or weed control at 125 ppm (Botrytis cinerea) is reported as 100% and the pest or weed control at 250 ppm (Botrytis cinerea) is reported as 100%. It also gave a pest or weed control at 500 ppm (Botrytis cinerea) of 100%, a pest or weed control at 500 ppm (Cochliobolus miyabeans) of 96.2% and an MIC [2] of 1.6 mg/L (≈ 5.04 µM). It also gave an MIC [3] of 0.8 mg/L (≈ 2.52 µM), an MIC (Sclerotinia sclerotiorum [4]) of 1.6 mg/L (≈ 5.04 µM) and an MIC (Altrenaria mali) of 3.1 mg/L (≈ 9.77 µM). The MIC (Altrenaria Kikuchiana) was 3.1 mg/L (≈ 9.77 µM) and the MIC (Botrytis allii) was 3.1 mg/L (≈ 9.77 µM).
Work on `CC12C(=O)N(c3cc(Cl)cc(Cl)c3)C(=O)N1CCS2(=O)=O` (stereo not drawn) [Compound No. 6, 7a-methyl-6-(3,5-dichlorophenyl)perhydroimidazo[5,1-b]thiazole-5,7-dion-1,1-dioxide] yielded a pest or weed control at 500 ppm (Botrytis cinerea) of 90% and a pest or weed control at 500 ppm (Cochliobolus miyabeans) of 90.6%.
`CCC12SCCN1C(=S)N(c1cc(Cl)cc(Cl)c1)C2=O` (stereo not drawn) [Compound No. 9, 7a-ethyl-6-(3,5-dichlorophenyl)perhydroimidazo[5,1-b]thiazole-5-thion-7-on] gave a pest or weed control at 500 ppm (Botrytis cinerea) of 96% and a pest or weed control at 500 ppm (Cochliobolus miyabeans) of 82.9%.
For `Nc1c(Cl)cc([N+](=O)[O-])cc1Cl` [2,6dichloro-4-nitroaniline, reference compound], the “Preventive Value” (Sclerotinia sclerotiorum [1]; 500 ppm) was 70.5%.
`N#Cc1c(Cl)c(Cl)c(Cl)c(C#N)c1Cl` [Tetrachloro isophthalonitrile, reference compound] was tested, and the pest or weed control at 500 ppm (Botrytis cinerea) was 65%.
For `O=C1C2SCCN2C(=S)N1c1cc(Cl)cc(Cl)c1` (stereo not drawn) [Compound No. 2, 6-(3,5-dichlorophenyl)perhydroimidazo[5,1-b]thiazole-5-thion-7-on], the pest or weed control at 500 ppm (Botrytis cinerea) was 92%, the pest or weed control at 500 ppm (Cochliobolus miyabeans) was 88.4% and the “Preventive Value” (Sclerotinia sclerotiorum [1]; 50 ppm) was 93.8%. The “Preventive Value” (Sclerotinia sclerotiorum [1]; 100 ppm) was 96.5% and the “Preventive Value” (Sclerotinia sclerotiorum [1]; 200 ppm) was 100%.
`CC12SCCN1C(=S)N(c1cc(Cl)cc(Cl)c1)C2=O` (stereo not drawn) [Compound No. 4, 7a-methyl-6-(3,5-dichlorophenyl)perhydroimidazo[5,1-b]thiazole-5-thion-7-on] gave a pest or weed control at 500 ppm (Botrytis cinerea) of 93% and a pest or weed control at 500 ppm (Cochliobolus miyabeans) of 85.7%.
For `CCCC12SCCN1C(=S)N(c1cc(Cl)cc(Cl)c1)C2=O` (stereo not drawn) [Compound No. 10, 7a-n-propyl-6-(3,5-dichlorophenyl)perhydroimidazo[5,1-b]thiazole-5-thion-7-on], the pest or weed control at 500 ppm (Botrytis cinerea) was 94% and the pest or weed control at 500 ppm (Cochliobolus miyabeans) was 83.2%.
Compound `CCCC12SCCN1C(=O)N(c1cc(Cl)cc(Cl)c1)C2=O` (stereo not drawn) [Compound No. 8, 7a-n-propyl-6-(3,5-dichlorophenyl)perhydroimidazo[5,1-b]thiazole-5,7-dion] has a pest or weed control at 500 ppm (Botrytis cinerea) of 97% and a pest or weed control at 500 ppm (Cochliobolus miyabeans) of 85.4%.
For `CCC12SCCN1C(=O)N(c1cc(Cl)cc(Cl)c1)C2=O` (stereo not drawn) [compound 7, 7a-ethyl-6-(3,5-dichlorophenyl)perhydroimidazo[5,1-b]thiazole-5,7-dion], the pest or weed control at 500 ppm (Botrytis cinerea) was 100% and the pest or weed control at 500 ppm (Cochliobolus miyabeans) was 90.8%.
Work on `CCCCNC(=O)n1c(NC(=O)OC)nc2ccccc21` [Benlate, reference compound] yielded an MIC [2] of 0.4 mg/L (≈ 1.38 µM), an MIC [3] of over 100 mg/L and an MIC (Altrenaria mali) of over 100 mg/L. For the same compound, the MIC (Altrenaria Kikuchiana) was over 100 mg/L.
